These results are taken from article PMC9571608, “Detection of Bitterness in Vitamins Is Mediated by the Activation of Bitter Taste Receptors” (Nutrients, 2022).

Where “and” joins values, the source holds several entries; their conditions need not be identical. Identical values can stand only once. Counter-ions that a name gives are not always drawn. Like-named read-outs stand apart in the source and are kept apart here.

For assay [1], the system named is human bitter taste detection (sensory panel). The experiment in a line: Human bitter taste detection threshold, three-alternative forced choice (3-AFC), BET method. The assay is classed as in vivo. To be noted: 32 panelists, group BET. The source says:
Based on bibliographic studies, preliminary works performed in the laboratory, and the results of taste receptor functional assays, the following vitamins were included in this study: vitamin B1 (thiamine hydrochloride), vitamin B2 (riboflavin phosphate), vitamin B3 (niacinamide), and vitamin B6 (pyridoxine hydrochloride). These vitamins are present in high quantities in nutritional supplements, safe for humans (except at very high concentrations), and can induce a strong bitter taste. These concentrations were determined according to the toxicity threshold of each compound tested and the maximum daily reference intake. These compounds were prepared in commercial mineral water (Evian®, Evian, France).
The threshold values for bitter taste detection were determined by 32 panelists (18–65 years old, 14 males and 18 females, without sensory perception disorders, food allergies, drug treatments, or heart, lung, or cardiac pathologies) who were recruited from Dijon (France) and the surrounding areas. An ethical committee approved this study (Personal Protection Committee of Rennes—Ouest V, protocol code 2018A01342-53), and all panelists signed an informed consent form. A sensory test called three-alternative forced choice (3-AFC) was used in accordance with the protocol detailed in NF ISO 13301. Before performing the measurement sessions, four training sessions were provided to familiarize the panelists with the bitter taste, test procedure, and signal acquisition software. In this discriminative test, six series consisting of three samples, which were each encoded using randomly generated three-digit numbers, were simultaneously delivered to the panelists. The six 3-AFC presentations contained two blank samples (commercial mineral water, manufacturer: Evian, France) and ascending concentrations of vitamin solution. Before the test, subjects were advised that each presentation consisted of two samples that contained only water and one sample that contained a taste. For each 3-AFC presentation, subjects were asked to take the samples sequentially from left to right. Then, they placed the entirety of each sample solution in their mouths and carefully gargled to ensure that the solution was dispersed throughout the mouth. A sip-and-spit procedure was used; subjects rinsed their mouths with commercial mineral water between each series of tests. Subjects were asked to indicate which of the samples contained the stimulus. If a subject perceived no difference between the three samples, he or she was asked to choose one (forced choice). The sensory tests were conducted in a room devoted to sensory evaluation. For the case of colored samples, black-colored glasses were used, and tastings were performed under red light. […] The aim of this sensory analysis was to determine the bitter taste detection threshold for these vitamins and not an olfactory detection threshold. Therefore, the measurements were conducted using pinched nose clips. The subjects waited one minute between each series and had to thoroughly rinse their mouths. Four repetitions were performed per subject for each vitamin to obtain statistically interpretable results, which represented a total of 288 samples. During the sensory analysis session, a bitterness detection threshold of only two vitamins was used (36 samples) to avoid the ingestion of a high vitamin quantity, which is potentially harmful. The answers from the panelists were collected using software dedicated to sensory analysis (FIZZ acquisition V.2.51 software).
The best estimate threshold (BET) method was used to determine the bitter detection threshold for four vitamins. The individual best-estimated detection threshold (BET) was proposed in ASTM E679-04. ASTM E679-04 is a standard practice for the determination of odor and taste thresholds via a forced-choice ascending concentration series method of limits. […]

In assay [2] the target is T1, TAS2R39 (Homo sapiens, UniProt P59534). To be noted: cited from earlier work.
For assay [3], the target named is T2, TAS2R7 (Homo sapiens, UniProt Q9NYW3).
T2 sequence (Q9NYW3 1-318): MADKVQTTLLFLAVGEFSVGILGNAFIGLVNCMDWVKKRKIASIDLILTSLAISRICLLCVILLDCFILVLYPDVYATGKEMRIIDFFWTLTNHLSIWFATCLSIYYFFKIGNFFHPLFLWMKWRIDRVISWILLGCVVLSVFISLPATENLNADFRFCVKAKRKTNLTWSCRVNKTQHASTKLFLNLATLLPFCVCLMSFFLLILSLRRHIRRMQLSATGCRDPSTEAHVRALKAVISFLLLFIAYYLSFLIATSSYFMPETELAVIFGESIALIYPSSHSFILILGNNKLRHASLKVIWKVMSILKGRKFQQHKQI
The assay can be described thus: Calcium mobilization assay, cells transiently expressing TAS2R7. The assay is classed as cell-based. More on the design: expressed in transfected cells; host or cells: HEK293T cells stably expressing Gα16gust44. As to conditions: vitamin B1 as thiamine hydrochloride, up to M.A.C 1 mM. The method, then:
(§1) A functional expression study was carried out as described previously. TAS2R expression vectors (pcDNA5FRT-SST3-TAS2R-HSV and pEAK-10-SST3-TAS2RHSV) were kindly provided by Wolfgang Meyerhof (German Institute of Human Nutrition Postdam-Rehbruecke, Nuthetal, Germany). For all constructs, the N-terminus contained the first 45 amino acids of rat somatostatin 3 (SST3) to improve membrane targeting. A sequence coding for a herpes simplex virus glycoprotein D epitope (HSV-tag) was added at the C-terminus to allow immunocytochemical detection of the receptor [13, 14, 23, 24]. HEK293T cells stably expressing the chimeric G protein α subunit Gα16gust44 [25, 26] were seeded into poly-D-lysine-coated 96-well black plates (0.35 × 10^5 cells/well) in high-glucose DMEM supplemented with 2 mM GlutaMAX, 10% dialysed fetal bovine serum penicillin/streptomycin, and G418 (400 µg/mL), and then placed under a humidified and controlled atmosphere (37 °C and 6.3% CO2) overnight. After 24–26 h of incubation, cells were transiently transfected with TAS2R expression plasmids (120 ng/well) using Lipofectamine 2000 reagent (0.4 µL/well) (Thermo Fisher Scientific, Illkirch-Graffenstaden, France).
(§2) Approximately 24–26 h after transfection, cells were loaded for 1 h at 37 °C with Fluo4-AM (2 µM, Molecular Probes), which had been previously mixed with pluronic acid F-127 (0.01%) in C1 buffer (130 mM NaCl, 5 mM KCl, 10 mM HEPES, 2 mM CaCl2, 10 mM pyruvic acid, pH 7.4, 300 mOsm) containing 2.5 mM probenecid (Life Technologies). Approximately one hour after loading, the plate was rinsed twice with 100 µL of C1 buffer. The calcium signal was recorded for 90 s after injection of a range of compounds using a Flexstation 3 fluorometric imaging plate reader (Molecular Devices) at a wavelength of 510 nm after excitation at 488 nm. All substance concentrations were measured in triplicate in at least three independent experiments. As cell transfection and substances can interfere with cellular viability and calcium assays, all compounds were tested on mock-transfected cells (cells transfected with empty vectors) on the same plates for all substance concentrations used.
To obtain a dose–response curve, the ratio between the maximum variation in fluorescence after ligand addition and the initial fluorescence before addition (ΔF/F0) was calculated for each well. The fluorescence signals collected for each replicate were averaged for the same substance concentration, and the fluorescence changes in the corresponding mock-transfected cells were subtracted. […] The dose–response data were fitted, and EC50 values were calculated using a four-parameter logistic equation using SigmaPlot software (Systat Software, San Jose, CA, USA). […]

Assay [4] deals with T2, TAS2R7. To be noted: cited from earlier work.
The target of assay [5] is T1, TAS2R39. To be noted: vitamin B1 as thiamine hydrochloride, up to M.A.C 1 mM. The method, then: as §1, with “After 24–26 h of incubation, cells were transiently transfected with TAS2R expression plasmids (120 ng/well) using Lipofectamine 2000 reagent (0.4 µL/well) (Thermo Fisher Scientific, Illkirch-Graffenstaden, France).” left out
as §2, with “Approximately one hour after loading, the plate was rinsed twice with 100 µL of C1 buffer.” left out, “As cell transfection and substances can interfere with cellular viability and calcium assays, all compounds were tested on mock-transfected cells (cells transfected with empty vectors) on the same plates for all substance concentrations used.” left out
(§3) To obtain a dose–response curve, the ratio between the maximum variation in fluorescence after ligand addition and the initial fluorescence before addition (ΔF/F0) was calculated for each well. The fluorescence signals collected for each replicate were averaged for the same substance concentration, and the fluorescence changes in the corresponding mock-transfected cells were subtracted. […]

In assay [6] the target is T3, TAS2R1 (Homo sapiens, UniProt Q9NYW7). The method, then: as §1, with “After 24–26 h of incubation, cells were transiently transfected with TAS2R expression plasmids (120 ng/well) using Lipofectamine 2000 reagent (0.4 µL/well) (Thermo Fisher Scientific, Illkirch-Graffenstaden, France).” left out
as §2, with “Approximately one hour after loading, the plate was rinsed twice with 100 µL of C1 buffer.” left out, “As cell transfection and substances can interfere with cellular viability and calcium assays, all compounds were tested on mock-transfected cells (cells transfected with empty vectors) on the same plates for all substance concentrations used.” left out
as §3

Assay [7] concerns the target T3, TAS2R1. To be noted: cited from earlier work.
Assay [8] concerns 25 human TAS2Rs. The experiment in a line: Taste receptor functional assay, panel of 25 human TAS2Rs. As to conditions: lowest concentration that could elicit TAS2R activation. It counts as cell-based. The method, then: A functional expression study was carried out as described previously. TAS2R expression vectors (pcDNA5FRT-SST3-TAS2R-HSV and pEAK-10-SST3-TAS2RHSV) were kindly provided by Wolfgang Meyerhof (German Institute of Human Nutrition Postdam-Rehbruecke, Nuthetal, Germany). For all constructs, the N-terminus contained the first 45 amino acids of rat somatostatin 3 (SST3) to improve membrane targeting. A sequence coding for a herpes simplex virus glycoprotein D epitope (HSV-tag) was added at the C-terminus to allow immunocytochemical detection of the receptor [13, 14, 23, 24]. […]
as §2, with “Approximately one hour after loading, the plate was rinsed twice with 100 µL of C1 buffer.” left out, “As cell transfection and substances can interfere with cellular viability and calcium assays, all compounds were tested on mock-transfected cells (cells transfected with empty vectors) on the same plates for all substance concentrations used.” left out

T3 sequence (Q9NYW7 whole entry): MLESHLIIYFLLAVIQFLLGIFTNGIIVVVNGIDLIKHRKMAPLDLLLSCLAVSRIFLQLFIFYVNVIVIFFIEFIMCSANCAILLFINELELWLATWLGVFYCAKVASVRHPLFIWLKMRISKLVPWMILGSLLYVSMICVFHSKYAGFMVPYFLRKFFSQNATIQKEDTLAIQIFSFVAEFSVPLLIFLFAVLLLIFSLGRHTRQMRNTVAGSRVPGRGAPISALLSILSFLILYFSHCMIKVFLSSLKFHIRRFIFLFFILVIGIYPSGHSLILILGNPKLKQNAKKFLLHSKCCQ
T1 sequence (P59534 whole entry): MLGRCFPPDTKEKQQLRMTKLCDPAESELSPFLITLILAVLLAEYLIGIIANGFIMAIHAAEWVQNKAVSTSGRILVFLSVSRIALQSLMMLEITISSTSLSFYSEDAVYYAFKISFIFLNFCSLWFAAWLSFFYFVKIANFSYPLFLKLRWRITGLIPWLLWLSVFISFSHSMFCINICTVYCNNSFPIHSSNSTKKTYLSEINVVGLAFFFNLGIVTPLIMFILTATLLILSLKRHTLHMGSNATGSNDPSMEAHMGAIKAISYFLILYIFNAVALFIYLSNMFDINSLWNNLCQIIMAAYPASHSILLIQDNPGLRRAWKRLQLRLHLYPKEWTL

Consider `Cc1ncc(C[n+]2csc(CCO)c2C)c(N)n1` [Vitamin B1, thiamine hydrochloride], for which the “Human Bitter Taste Detection Threshold” value in assay [1] (Figure 3, aqueous solution) is 1.1 mM; in assay [1] (aqueous solution (mineral water), nose clips, listed as B1), 1.10 mM; in assay [1] (aqueous solution (mineral water), nose clips, listed as vitamin B1), 1.1 mM. In addition, the figures for the TAS2R39 activation result in assay [2] and in assay [5] were “activation” and “unable to demonstrate the activation”, respectively. The TAS2R7 activation entry in assay [3] is “unable to demonstrate the activation”; in assay [4], “activation”. Moreover, the TAS2R1 activation result in assay [6] (0.1 mM) and in assay [7] was “activation” each time. Moreover, in assay [6] (HEK293T-Gα16gust44 cells, calcium signal, up to M.A.C), the “TAS2R Receptor 1 response” value was “+”. For the same compound, the “Cellular Bitter Taste Detection Threshold” value in assay [8] is 0.1 mM and 0.10 mM.
